In patent US7288541B2, “Propylcarbamate derivatives as inhibitors of serine and cysteine proteases” (SmithKline Beecham Corporation, priority 2001, dated 2007):
Where two headings read alike, the source gives them in different places.

Columns and labels:
Assay type in all cases: biochemical
[1] = target: human cathepsin S (Homo sapiens, UniProt P25774); experiment: Cathepsin S inhibition, fluorogenic substrate Cbz-Val-Val-Arg-AMC, progress curve method; details: Table 2, Inhibition of Cathepsins (Ki in nM); recombinant human enzyme, 10 μM substrate, pH 5.5; read-out: hCat S IC50
Sequence of human cathepsin S (P25774 115-331): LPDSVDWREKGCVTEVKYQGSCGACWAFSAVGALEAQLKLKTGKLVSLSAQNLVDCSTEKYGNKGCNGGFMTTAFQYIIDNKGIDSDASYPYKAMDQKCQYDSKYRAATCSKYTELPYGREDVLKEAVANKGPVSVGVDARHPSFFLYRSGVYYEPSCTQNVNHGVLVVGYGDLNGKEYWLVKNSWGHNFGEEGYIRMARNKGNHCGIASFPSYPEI
Protocol: (§1) All assays for cathepsin K were carried out with human and rat recombinant enzyme. Assays for cathepsins S & V were also carried out with human recombinant enzyme. Assays for human cathepsins B, H, and L were carried out with enzyme prepared from human liver tissue. Standard assay conditions for the determination of kinetic constants used a fluorogenic peptide substrate, typically (5S,8S)-13-amino-5-benzyl-13-imino-3-methylene-N-(4-methyl-2-oxo-2H-chromen-7-yl)-6-oxo-1-phenyl-2-oxa-4,7,12-triazatridecane-8-carboxamide (Cbz-Phe-Arg-AMC), and were determined in 100 mM sodium acetate at pH 5.5 containing 10 mM dithiothreitol and 120 mM sodium chloride. […]
(§2) All assays contained 10% dimethyl sulfoxide. […] Product fluorescence (excitation at 360 nm; emission at 440 nm, (except cathepsin H which used excitation at 340 nm; emission at 420 nm)) was monitored with a PerSeptive Biosystems Cytofluor II fluorescence plate reader. […]
(§3) Potential inhibitors were evaluated using the progress curve method. […] For those compounds whose progress curves were linear, the enzymatic activity (RATE) was plotted against the concentration of test compound, including inhibitor concentration of zero ([I]=0), and the IC50 determined from a fit of equation 1 to the data, RATE=Vmax/(1+([I]/IC50)) (1) where Vmax is the best fit estimate of the maximal enzymatic activity. […]

[2] = target: T1, human cathepsin L (Homo sapiens, UniProt P07711); experiment: Cathepsin L inhibition, fluorogenic substrate Cbz-Phe-Arg-AMC, progress curve method; details: Table 2, Inhibition of Cathepsins (Ki in nM); enzyme from human liver tissue, 5 μM substrate, pH 5.5; read-out: hCat L IC50
T1 construct: enzyme prepared from human liver tissue; from tissue; host or cells: human liver
T1 sequence (P07711 114-288 limits assumed): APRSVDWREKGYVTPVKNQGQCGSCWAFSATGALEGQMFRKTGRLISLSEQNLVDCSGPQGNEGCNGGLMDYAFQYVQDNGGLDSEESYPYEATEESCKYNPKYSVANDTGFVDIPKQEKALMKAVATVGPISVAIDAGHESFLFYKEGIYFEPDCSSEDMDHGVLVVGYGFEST
T1 sequence (P07711 292-333 limits assumed): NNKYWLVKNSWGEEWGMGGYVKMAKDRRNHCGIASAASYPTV
Protocol: as §1, §2, §3

[3] = target: T2, human cathepsin B (Homo sapiens, UniProt P07858); experiment: Cathepsin B inhibition, fluorogenic substrate Cbz-Phe-Arg-AMC, progress curve method; details: Table 2, Inhibition of Cathepsins (Ki in nM); enzyme from human liver tissue, 10 μM substrate, pH 5.5; read-out: hCat B IC50
T2 construct: enzyme prepared from human liver tissue; from tissue; host or cells: human liver
Protocol: as §1, §2, §3

[4] = target: human cathepsin V (Homo sapiens, UniProt O60911); experiment: Cathepsin V inhibition, fluorogenic substrate Cbz-Phe-Arg-AMC, progress curve method; details: Table 2, Inhibition of Cathepsins (Ki in nM); recombinant human enzyme, 2 μM substrate, pH 5.5; read-out: hCat V IC50
Sequence of human cathepsin V (O60911 114-334): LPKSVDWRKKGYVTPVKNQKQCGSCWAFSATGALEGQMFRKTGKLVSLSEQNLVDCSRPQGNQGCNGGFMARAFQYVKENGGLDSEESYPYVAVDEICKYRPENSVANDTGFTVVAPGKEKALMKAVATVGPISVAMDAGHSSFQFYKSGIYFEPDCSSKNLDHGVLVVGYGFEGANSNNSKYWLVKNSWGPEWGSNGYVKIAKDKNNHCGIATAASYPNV
Protocol: as §1, §2, §3

[5] = target: T3, human cathepsin K (Homo sapiens, UniProt P43235); experiment: Cathepsin K inhibition, fluorogenic substrate Cbz-Phe-Arg-AMC, progress curve method; details: recombinant human enzyme, 10 μM substrate, read-out: hCat K IC50
T3 construct: The proform of cathepsin K was converted to mature cathepsin K by brief exposure to pH 4; made in house; host or cells: baculovirus; Trichoplusia ni High Five cells (virus raised in Sf-9)
T3 sequence (P43235 115-329): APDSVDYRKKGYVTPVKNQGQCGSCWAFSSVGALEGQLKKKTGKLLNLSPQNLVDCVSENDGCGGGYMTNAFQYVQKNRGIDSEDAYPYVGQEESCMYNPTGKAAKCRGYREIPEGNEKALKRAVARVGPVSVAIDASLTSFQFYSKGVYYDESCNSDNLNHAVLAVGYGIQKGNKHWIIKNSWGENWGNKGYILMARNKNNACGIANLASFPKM
Protocol: All assays for cathepsin K were carried out with human and rat recombinant enzyme. Assays for cathepsins S & V were also carried out with human recombinant enzyme. Assays for human cathepsins B, H, and L were carried out with enzyme prepared from human liver tissue. […] A stock substrate solution of Cbz-Phe-Arg-AMC was prepared at a concentration of 50 mM in dimethyl sulfoxide. This substrate was diluted into the assay for a final substrate concentration of 10 μM in the rat cathepsin K, human cathepsin K, and human cathepsin B assays; a final substrate concentration of 5 μM in the human cathepsin L assay; and a final substrate concentration of 2 μM in the human cathepsin V assay.
All assays contained 10% dimethyl sulfoxide. […] All assays were conducted at 30° C. Product fluorescence (excitation at 360 nm; emission at 440 nm, (except cathepsin H which used excitation at 340 nm; emission at 420 nm)) was monitored with a PerSeptive Biosystems Cytofluor II fluorescence plate reader. Product progress curves were generated over 2.3 h monitoring the formation of 7-amino-4-methylcoumarin product (or β-naphthalamide for cathepsin H).
Human and Rat Cathepsin K:
The cells continued to grow for 72 h post-infection, before the virus was harvested by centrifugation at 1400×g for 30 min.
One and one-half liters of Trichoplusia ni (T. ni) High Five (TM) cells [JRH Biosciences, Woodland, Calif. […] The cells were grown for 24 h at 28° C., 50 RPM, and 50% dissolved oxygen. […] Media were separated from cells at a rate of 1 L/min using the Centritech 100 (TM) continuous-flow centrifuge (DuPont) operating at 200×g.
Protein Purification: Media (human and rat) were filtered through a Whatman 3 filter, and then loaded onto a 25 mL Poros HS II (26 mm×47 mm) cation exchange column equilibrated in 25 mM sodium acetate at pH 5.5 (equilibration buffer). The column was washed until the absorbance reached the baseline value, and then the protein was eluted with a linear gradient from 0–2 M sodium chloride in the equilibration buffer. Column fractions were analyzed by SDS-PAGE, N-terminal sequencing, and mass spectrometry. Fractions containing the proform of cathepsin K were pooled and frozen at −80° C. The proform was concentrated in an Amicon Centriprep 10 and fractionated with a Superdex 75 column (26 mm×600 mm, Pharmacia) equilibrated in 400 mM sodium chloride, 25 mM sodium acetate at pH 5.5.
Cathepsin K Activation: The proform of cathepsin K was converted to mature cathepsin K by brief exposure to pH 4 in the presence of 5 mM L-cysteine. Typically, 5 mM L-cysteine was added to 10 mL of approximately 1 mg/mL procathepsin K. One mL of this solution was diluted ten-fold into 450 mM sodium acetate at pH 4.0 containing 5 mM L-cysteine. This solution was reacted at 23° C. for 2 min before neutralization with 2 mL 1.8 M sodium acetate at pH 6.0. The neutralized sample was added to the remaining 9 mL of procathepsin K. The mixture was incubated at 4° C. for 2–3 days. The activated cathepsin K was chromatographed on a Poros HS II column as described above.
Potential inhibitors were evaluated using the progress curve method. Assays were carried out in the presence of variable concentrations of test compound. Reactions were initiated by addition of buffered solutions of inhibitor and substrate to enzyme. Data analysis was conducted according to one of two procedures depending on the appearance of the progress curves in the presence of inhibitors. […] Ki values were calculated from IC50 values using equation 2 assuming a competitive model.

[6] = Table 1, Inhibition of Cathepsin K (Ki in nM), pH 5.5, 30° C.
[7] = Table 2, Inhibition of Cathepsins (Ki in nM), pH 5.5

| Compound | IC50 [1] | IC50 [2] | IC50 [3] | IC50 [4] | IC50 [5, 6] | IC50 [5, 7] |
| --- | --- | --- | --- | --- | --- | --- |
| CCCC[C@H](NC(=O)O[C@@H]1CN(c2nc3ccccc3s2)CC1(C)C)C(=O)CNS(=O)(=O)c1ccccn1 [Example 6, (3S)-1-(1,3-benzothiazol-2-yl)-4,4-dimethylpyrrolidinyl (1S)-1-{[(2-pyridinylsulfonyl)amino]acetyl}pentylcarbamate] | 10 to 100 nM | 1000 to 10000 nM | 1000 to 10000 nM | 100 to 1000 nM | 100 to 1000 nM | 100 to 1000 nM |
| C[C@H](NC(=O)O[C@H](Cn1cnc2cc(Cl)c(Cl)cc21)C(C)(C)C)C(=O)CNS(=O)(=O)c1ccccn1 [Example 16, (1S)-1-[(5,6-dichloro-1H-benzimidazol-1-yl)methyl]-2,2-dimethylpropyl (1S)-1-methyl-2-oxo-3-[(2-pyridinylsulfonyl)amino]propylcarbamate] | < 10 nM | 10 to 100 nM | 10 to 100 nM | < 10 nM | < 10 nM | < 10 nM |
